Each compound was assayed on endogenous SSPN protein with an N-term fusion protein (C2C12 cells) (assay: C2C12 HiBiT assay (SSPN-HiBiT myotubes, primary screen)). Settings: treated day 2, harvested day 4 of differentiation, concentration not given.
Format: cell-based, murine
Procedure: FIG. 1. Activity of DDL-463, DDL-465 (A) and DDL-472 (B) in HiBiT assay. Comparison of activity of the new compounds with parent compound (OT-9m) and vehicle-treated cells. SSPN-HiBiT myotubes were treated on day 2 and harvested on day 4 of differentiation. R.U.=relative units normalized to protein concentration and vehicle control (DMSO). n=18. **p<0.01, ****p<0.0001, ns-difference is non-significant from the vehicle-treated cells.
(§1) Comparison of activity of the new compounds of quinolone series (DDL-494, DDL-495, DDL-496) with parent compound (DDL-449 (aka OT-9m)) and vehicle-treated cells. SSPN-HiBiT myotubes were treated on day 2 and harvested on day 4 of differentiation. R.U.=relative units normalized to protein concentration and vehicle control (DMSO). n=18 for every compound concentration. *p<0.05; **p<0.01, ***p<0.001; ****p<0.0001
as §1, with “compound” for “compounds”, “coumarin” for “quinolone”, “(DDL-491)” for “(DDL-494, DDL-495, DDL-496)”, “(DDL-472)” for “(DDL-449 (aka OT-9m))”, “*p<0.05;” for “*p<0.05; **p<0.01, ***p<0.001;”
To assess activity of the new molecules, a C2C12 HiBiT assay was used as a primary screen. This assay is based on murine C2C12 cell line expressing endogenous SSPN protein with an N-term fusion protein described previously in WO 2022/055926.
Details on development of HiBiT assay for rapid testing of new analogues in vitro (FIG. 2A, B) are provided in PCT Pub. No. WO 2022/055926.

| SSPN-HiBiT fold change over vehicle | SMILES |
| --- | --- |
| 1.1 fold | CN(C)c1ccc2cc(C(=O)Nc3ccc(C(=O)N4CCCOCC4)cc3)c(=O)oc2c1 [DDL-484] |
| 1.2 fold | C#CCN(CC)c1ccc2cc(C(=O)Nc3ccc(C(=O)N4CCCOCC4)cc3)c(=O)oc2c1 [DDL-489] |
| 1.4 fold | CC(C)N(c1ccc2cc(C(=O)Nc3ccc(C(=O)N4CCCOCC4)cc3)c(=O)oc2c1)C(C)C [DDL-491] |
| 1.3 fold | O=C(Nc1ccc(C(=O)N2CCCOCC2)cc1)c1cc2cc(Br)ccc2[nH]c1=O [DDL-496] |
| 1.4 fold | CC(C)Oc1ccc2[nH]c(=O)c(C(=O)Nc3ccc(C(=O)N4CCCOCC4)cc3)cc2c1 [DDL-762] |

The next lines start with the compound.

| SMILES | SSPN-HiBiT fold change over vehicle |
| --- | --- |
| COc1ccc2[nH]c(=O)c(C(=O)NC3=NNC(C(=O)N4CCCOCC4)N3)cc2c1 (stereo not drawn) [DDL-458] | ~1 fold |
| COc1ccc2[nH]c(=O)c(C(=O)Nc3c[nH]c(C(=O)N4CCCOCC4)n3)cc2c1 [DDL-459, N-(2-(1,4-oxazepane-4-carbonyl)-1H-imidazol-4-yl)-6-methoxy-2-oxo-1,2-dihydroquinoline-3-carboxamide] | ~1 fold |
| COc1ccc2cc(C(=O)Nc3ccc(C(=O)N4CCCOCC4)cc3)c(=O)[nH]c2c1 [DDL-460] | 1.1 fold |
| COc1cc2cc(C(=O)Nc3ccc(C(=O)N4CCCOCC4)cc3)c(=O)[nH]c2cc1OC [DDL-461] | 1.1 fold |
| O=C(Nc1ccc(C(=O)N2CCCOCC2)cc1)c1cc2ccccc2[nH]c1=O [DDL-462] | ~1 fold |
| O=C(Nc1ccc(C(=O)N2CCCOCC2)cc1)c1cc2cc(F)ccc2[nH]c1=O [DDL-463] | 1.4 fold |
| O=C(Nc1ccc(C(=O)N2CCCOCC2)cc1)c1cc2ccc(F)cc2[nH]c1=O [DDL-464] | ~1 fold |
| CC(=O)Nc1ccc2[nH]c(=O)c(C(=O)Nc3ccc(C(=O)N4CCCOCC4)cc3)cc2c1 [DDL-476] | ~1 fold |
| CC(C)Oc1ccc2cc(C(=O)Nc3ccc(C(=O)N4CCCOCC4)cc3)c(=O)oc2c1 [DDL-481] | ~0.9 fold |
| O=C(Nc1ccc(C(=O)N2CCCOCC2)cc1)c1cc2ccc(N3CCOCC3)cc2oc1=O [DDL-482] | ~1 fold |

Same assay, conditions: treated day 2, harvested day 4 of differentiation, vs vehicle

| SMILES | activity in HiBiT assay |
| --- | --- |
| O=C(Nc1ccc(C(=O)N2CCCOCC2)cc1)c1cc2cc(F)ccc2[nH]c1=O [DDL-463] | exhibit activity |
| CC(C)N(c1ccc2cc(C(=O)Nc3ccc(C(=O)N4CCCOCC4)cc3)c(=O)oc2c1)C(C)C [DDL-491] | active |
| O=C(Nc1ccc(C(=O)N2CCCOCC2)cc1)c1cc2cc(Br)ccc2[nH]c1=O [DDL-496] | active |

Reference: US20260317292A1, “SMALL MOLECULE THERAPY FOR DUCHENNE MUSCULAR DYSTROPHY” (The Regents of the University of California, priority 2023, published 2026)
